Measurements: BindingDB's records for doi:10.1107/s0907444999007350 (Berlex, 1999)

Target: Coagulation factor X (Homo sapiens, UniProt P00742)
Assay: Enzyme Inhibition Assay
Conditions: pH 7.5; 22 °C
Experimental: The enzyme activities were determined kinetically as the initial rate of cleavage of a peptide p-nitroanilide. Km for enzyme and substrate was determined using four substrate dilutions. Enzyme was incubated with test compounds for 10 min; the reaction was then started by the addition of the substrate. […] IC50 values for inhibitors were determined from the dose response curve by fitting the data to the Hill equation. Ki,app values were calculated as the IC50/2, with the IC50 value determined at a substrate concentration equal to Km

Coagulation factor X, sequence (P00742 41-179 limits assumed): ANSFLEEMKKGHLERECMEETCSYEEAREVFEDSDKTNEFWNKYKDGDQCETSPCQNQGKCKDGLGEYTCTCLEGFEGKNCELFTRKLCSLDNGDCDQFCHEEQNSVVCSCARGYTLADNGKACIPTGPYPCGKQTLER
Coagulation factor X, sequence (P00742 235-488 limits assumed): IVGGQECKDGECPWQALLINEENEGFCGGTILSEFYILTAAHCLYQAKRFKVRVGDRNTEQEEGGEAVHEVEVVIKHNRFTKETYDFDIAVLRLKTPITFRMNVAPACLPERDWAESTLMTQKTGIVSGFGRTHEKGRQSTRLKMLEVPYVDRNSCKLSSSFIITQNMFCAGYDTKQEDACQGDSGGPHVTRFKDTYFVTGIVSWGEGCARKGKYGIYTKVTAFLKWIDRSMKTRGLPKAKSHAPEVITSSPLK

| Ki | Structure (SMILES) |
| --- | --- |
| 1.6 nM | [H]/N=C(/C)N1CCC(Oc2ccc3c4ccccc4n(Cc4ccc5ccc(C(=N)N)cc5c4)c3c2)CC1 [ZK-806450] |
| 14 nM | Cc1c(F)c(Oc2cccc(C(=N)N)c2)nc(Oc2cccc(C(=N)N)c2)c1F |
| 0.11 nM | CN1CCN=C1c1cccc(Oc2nc(Oc3cc(C(=N)N)ccc3O)c(F)c(N3CCCC(C(=O)O)C3)c2F)c1 (stereo not drawn) [1-[2-(5-carbamimidoyl-2-hydroxyphenoxy)-3,5-difluoro-6-[3-(1-methyl-4,5-dihydro-1H-imidazol-2-yl)phenoxy]pyridin-4-yl]piperidine-3-carboxylic acid] |
